Measurements: patent EP4471048A1, “PEPTIDE INHIBITORS OF INTERLEUKIN-23 RECEPTOR” (Zealand Pharma A/S, priority 2023, dated 2024)
*1 amine or outer side, *2 acyl side, *3 side chain or, on linkers, in order; H or OH if unused. Where a SMILES comes first, the peptide text is derived from it. Bridges are numbered along the chain shown (N, C = ends). [ ]: non-standard residue; d: D form. X8 = O=C(CC[C@@H](N[*:2])C(=O)[*:3])[*:1]; 2Nal = N[C@@H](Cc1ccc2ccccc2c1)C(=O)O; AEF = NCCOc1ccc(C[C@H](N)C(=O)O)cc1; X1 = O=C(Cc1ccc(CN[*:1])cc1)[*:2]; 3Pal = N[C@@H](Cc1cccnc1)C(=O)O; αMeL = CC(C)C[C@](C)(N)C(=O)O; CH2COCH2 = O=C(C[*:1])C[*:2]; NMeS = CN[C@@H](CO)C(=O)O; Dab = NCC[C@H](N)C(=O)O; βAla = NCCC(=O)O

Key:
[1] = Peptide stability in simulated intestinal fluid (SIF); format: in vitro ADME; settings: 37 °C, porcine pancreatin; for remaining at 1 h, 10 µM / remaining at 4 h, 10 µM: pig
Description: (§1) SGF was prepared by dissolving sodium chloride (0.2 g) in 50 mL of water. A volume of 0.7 mL of 10 M HCl was added to adjust the pH of the solution to 1.2 and the volume made up to 100 mL with water. […] SIF was prepared by dissolving monobasic potassium phosphate (0.68 g) in 50 mL of water and adjusting the pH to 6.8 with 1 M NaOH. The volume was subsequently made up to 100 mL with water. 200 mg porcine pancreatin (P1625, Sigma Aldrich) was gently dissolved into 20 mL preheated (37 °C) solution (10 g/L) immediately prior to the incubation.
(§2) The incubation was performed at 37 °C with gentle shaking. […] After the last timepoint, the sampling plate was mixed for 10 min on a shaking table and centrifuged 10 min at 2200 g. 70 µL resulting supernatant was diluted with 150 µL water, mixed and centrifugated before analysis by liquid chromatography high resolution mass spectrometry. […] Percent remaining at each timepoint was calculated relative to timepoint zero based on absolute peak areas.
Compounds with a SIF stability (after 4 h) above 70% are considered highly SIF stable.

[2] = Peptide stability in simulated gastric fluid (SGF); format: in vitro ADME; settings: 37 °C, porcine pepsin; for remaining at 1 h, 10 µM / remaining at 4 h, 10 µM: pig, simulated gastric fluid (SGF) with porcine pepsin (3.2 g/L), pH 1.2, 10 µM; for remaining at 1 h, 10 µM: read-out: SGF (% remaining 1 h); for remaining at 4 h, 10 µM: read-out: SGF (% remaining 4 h)
Description: as §1, §2
Compounds with a SGF stability (after 4 h) above 70% are considered highly SGF stable. […] Table 3-4: SGF data

[3] = target: T1, human IL-23R (Homo sapiens, UniProt Q5VWK5); assay: biochemical; settings: for Emax: read-out: % displacement (hIL-23R NIuc)
T1 sequence (Q5VWK5 22-629): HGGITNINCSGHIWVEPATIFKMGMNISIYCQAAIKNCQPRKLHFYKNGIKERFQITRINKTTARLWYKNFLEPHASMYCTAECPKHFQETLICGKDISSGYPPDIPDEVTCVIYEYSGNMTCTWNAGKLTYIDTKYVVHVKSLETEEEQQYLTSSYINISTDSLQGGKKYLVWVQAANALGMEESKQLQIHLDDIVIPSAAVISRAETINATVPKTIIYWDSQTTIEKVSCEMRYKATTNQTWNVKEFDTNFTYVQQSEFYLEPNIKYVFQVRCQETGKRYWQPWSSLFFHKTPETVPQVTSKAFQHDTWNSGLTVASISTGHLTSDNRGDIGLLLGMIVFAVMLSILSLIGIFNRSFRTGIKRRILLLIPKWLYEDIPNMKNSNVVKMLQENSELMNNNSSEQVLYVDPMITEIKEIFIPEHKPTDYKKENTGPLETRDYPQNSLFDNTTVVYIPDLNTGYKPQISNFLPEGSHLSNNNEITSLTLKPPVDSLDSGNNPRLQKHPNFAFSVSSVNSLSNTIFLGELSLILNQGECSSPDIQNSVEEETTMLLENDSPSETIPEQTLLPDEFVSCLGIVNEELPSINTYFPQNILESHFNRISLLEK
In short: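 Membranes from HEK293 cells stably expressing Nluc-tagged human IL-23R were incubated 2 h at room temperature with test compound and a fluorophore-labelled tracer. After substrate addition, loss of BRET (TAMRA over luciferase emission) reported tracer displacement. A 4PL fit gave IC50 values.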

[4] = pH 6.8, 4 h, read-out: SIF (% remaining 4 h)

SMILES | SIF (% remaining 1 h) ([1]; 10 µM, pH 6.8, 1 h) [%] | SIF (% remaining 4 h) ([1]; 10 µM, pH 6.8, 4 h) [%] | SGF (% remaining 1 h) ([2]; 10 µM, pH 1.2, 1 h) [%] | SGF (% remaining 4 h) ([2]; 10 µM, pH 1.2, 4 h) [%] | IC50 [3] [nM] | Emax [3] [%] | remaining at 1 h, 10 µM ([1]; pH 6.8, 1 h) [%] | remaining at 4 h, 10 µM [1, 4] [%] | remaining at 1 h, 10 µM ([2]; pH 1.2, 1 h) [%] | remaining at 4 h, 10 µM ([2]; pH 1.2, 4 h) [%] | % displacement (hIL-23R NIuc) [3] [%] | remaining at 4 h, 10 µM ([1]; SAR tables, % peptide remaining, pH 6.8, 4 h, read-out: SIF (% after 4 h)) [%]
CC(C)C[C@@H]1NC(=O)[C@H](Cc2c[nH]c3ccccc23)NC(=O)[C@H](Cc2c[nH]c3ccccc23)NC(=O)[C@@H]2CSCC(=O)CSC[C@H](NC(=O)[C@H](CO)NC(=O)[C@@H](NC(=O)[C@@H](N)CC(=O)O)CSCC(=O)CSC[C@@H](C(=O)N[C@@H](CCCNC(=N)N)C(N)=O)NC1=O)C(=O)N[C@@H](Cc1c[nH]c3ccccc13)C(=O)N[C@@H](CCC(N)=O)C(=O)N2 (single isomer, unassigned) [I3 (isomer 3), H-DC(1a)SC(2a)WQC(2a)WWLC(1a)R-[NH2], reference compound] | 0 | 0 | 5 | 0 |  |  |  |  |  |  |  | 
CC[C@H](C)[C@@H]1NC(=O)[C@@H]2CCCCNC(=O)CC[C@@H](C(=O)NCC(=O)N[C@H](Cc3cccnc3)C(N)=O)NC(=O)[C@](C)(C(C)C)NC(=O)[C@H](Cc3ccc4ccccc4c3)NC(=O)[C@H](Cc3ccc(C)cc3)NC(=O)[C@H](CCC(=O)N2)NC(=O)[C@H](CCC(N)=O)NC(=O)[C@H](Cc2c[nH]c3ccccc23)NC(=O)[C@H](C(C)C)NC1=O [Compound 19, K(1c)(6c)^†IVWQE(6c)[F(4-Me)][2-Nal][2-Me-Val]E(1c)G[{d}3-(3-Pyridyl)-Ala]-[NH2]] |  |  |  |  | 37 | 103 | 90 | 27 | 78 | 6 |  | 
CC[C@H](C)[C@@H]1NC(=O)[C@@H]2CCCCNC(=O)CC[C@@H](C(=O)NCCc3cccnc3)NC(=O)[C@](C)(C(C)C)NC(=O)[C@H](Cc3ccc4ccccc4c3)NC(=O)[C@H](Cc3ccc(OCCN)cc3)NC(=O)[C@H](CCC(=O)N2)NC(=O)[C@H](CCC(N)=O)NC(=O)[C@H](Cc2c[nH]c3ccccc23)NC(=O)[C@H](C(C)C)NC1=O [Compound 26, K(1c)(6c)^†IVWQE(6c)[Y(2-aminoethoxy)][2-Nal][2-Me-Val]E(1c)-[NH-2-(pyridin-3-yl)ethyl]] |  |  |  |  | 320 |  | 97 | 96 | 95 | 96 | 101 | 
CNC(=O)[C@H](Cc1cccnc1)NC(=O)[C@H](CCN)NC(=O)[C@@H]1CCC(=O)NCCCC[C@@H]2NC(=O)CC[C@H](NC(=O)[C@H](CCC(N)=O)NC(=O)[C@H](Cc3c[nH]c4ccccc34)NC2=O)C(=O)N[C@@H](Cc2ccc(OCCN)cc2)C(=O)N[C@@H](Cc2ccc3ccccc3c2)C(=O)N[C@@](C)(CC(C)C)C(=O)N1 [Compound 43, K(1c)(6c)^†WQE(6c)[Y(2-aminoethoxy)][2-Nal][2-Me-Leu]E(1c)[Dab][3-(3-Pyridyl)-Ala]-[NHMe]] (KWQE[AEF][2Nal][αMeL]E[Dab][3Pal]-NHMe; lactam 1-8, N-4) |  |  |  |  | 80 | 100 | 91 |  | 110 | 108 |  | 102
COc1ccc(C[C@@H]2NC(=O)[C@@H]3CCC(=O)N[C@@H](CCCCNC(=O)CC[C@@H](C(=O)N[C@@H](CCCCNC(=O)c4cccnc4)C(N)=O)NC(=O)[C@](C)(CC(C)C)NC(=O)[C@H](Cc4ccc5ccccc5c4)NC2=O)C(=O)N[C@@H]([C@@H](C)O)C(=O)N[C@@H](C(C)C)C(=O)N[C@@H](Cc2c[nH]c4ccccc24)C(=O)N[C@@H](CCC(N)=O)C(=O)N3)cc1 [Compound 50, K(1c)(6c)^†TVWQE(6c)[Y(Me)][2-Nal][2-Me-Leu]E(1c)[K(nicotinate)]-[NH2]] |  |  |  |  | 320 |  | 95 | 81 | 78 | 8 | 98 | 
CC[C@H](C)[C@@H]1NC(=O)[C@@H]2CCCCNC(=O)CC[C@@H](C(=O)NC3(C(=O)N[C@@H](Cc4cccnc4)C(=O)NC)CCNCC3)NC(=O)[C@](C)(CC(C)C)NC(=O)[C@H](Cc3ccc4ccccc4c3)NC(=O)[C@H](Cc3ccc(OCCN)cc3)NC(=O)[C@H](CCC(=O)N2)NC(=O)[C@H](CCC(N)=O)NC(=O)[C@H](Cc2c[nH]c3ccccc23)NC(=O)[C@H](C(C)C)NC1=O [Compound 62, K(1c)(6c)^†IVWQE(6c)[Y(2-aminoethoxy)][2-Nal][2-Me-Leu]E(1c)[4-Aminopiperidin-4-carbonyl][3-(3-Pyridyl)-Ala]-[NHMe]] |  |  |  |  | 0.072 | 99 | 111 | 87 | 105 | 108 |  | 
CNC(=O)[C@H](Cc1cccnc1)NC(=O)[C@H](CCN)NC(=O)[C@@H]1CCCCNC(=O)[C@H]2CCC(=O)N[C@@H](Cc3c[nH]c4ccccc34)C(=O)N[C@@H](CCC(N)=O)C(=O)N[C@@H](CCC(=O)N2)C(=O)N[C@@H](Cc2ccc(OCCN)cc2)C(=O)N[C@@H](Cc2ccc3ccccc3c2)C(=O)N[C@@](C)(CC(C)C)C(=O)N1 [Compound 108, [{d}iso-Glu](1c)^‡(6c)^†WQE(6c)[Y(2-aminoethoxy)][2-Nal][2-Me-Leu]K(1c)[Dab][3-(3-Pyridyl)-Ala]-[NHMe]] (WQE[AEF][2Nal][αMeL]K[Dab][3Pal]-NHMe; linker N-3-7 via X8) |  |  |  |  | 16 | 101 |  |  |  |  |  | 
CNC(=O)[C@H](Cc1cccnc1)NC(=O)[C@H](CCN)NC(=O)[C@@H]1CCNC(=O)[C@H]2CCC(=O)N[C@@H](Cc3c[nH]c4ccccc34)C(=O)N[C@@H](CCC(N)=O)C(=O)N[C@@H](CCC(=O)N2)C(=O)N[C@@H](Cc2ccc(OCCN)cc2)C(=O)N[C@@H](Cc2ccc3ccccc3c2)C(=O)N[C@@](C)(CC(C)C)C(=O)N1 [Compound 109, [{d}iso-Glu](1c)^‡(6c)^†WQE(6c)[Y(2-aminoethoxy)][2-Nal][2-Me-Leu][Dab](1c)[Dab][3-(3-Pyridyl)-Ala]-[NHMe]] (WQE[AEF][2Nal][αMeL][Dab][Dab][3Pal]-NHMe; linker N-3-7 via X8) |  |  |  |  | 26 | 96 |  |  |  |  |  | 
CNC(=O)[C@H](Cc1cccnc1)NC(=O)[C@H](CCN)NC(=O)[C@@H]1CCC(=O)NCCCC[C@@H]2NC(=O)CC[C@H](NC(=O)[C@H](CCC(N)=O)NC(=O)[C@H](Cc3c[nH]c4ccccc34)NC(=O)CCNC2=O)C(=O)N[C@@H](Cc2c[nH]c3ccccc23)C(=O)N[C@@H](Cc2ccc3ccccc3c2)C(=O)N[C@@](C)(CC(C)C)C(=O)N1 [Compound 110, K(1c)(6c)^†[3-Aminopropanoyl]WQE(6c)W[2-Nal][2-Me-Leu]E(1c)[Dab][3-(3-Pyridyl)-Ala]-[NHMe]] (K[βAla]WQEW[2Nal][αMeL]E[Dab][3Pal]-NHMe; lactam 1-9, N-5) |  |  |  |  | 0.079 | 100 |  |  |  |  |  | 
CC(C)C[C@]1(C)NC(=O)[C@H](Cc2ccc3ccccc3c2)NC(=O)[C@H](Cc2ccc(OCCN)cc2)NC(=O)[C@@H]2CSCC(=O)CSC[C@H](NC(=O)[C@H](CO)N(C)C(=O)Cc3ccc(cc3)CNC(=O)CC[C@@H](C(=O)N[C@@H](CCN)C(N)=O)NC1=O)C(=O)N[C@@H](Cc1c[nH]c3ccccc13)C(=O)N[C@@H](CCC(N)=O)C(=O)N2 [Ref 141, [4-Aminomethyl-phenylacetyl](1c)*[N-Me-Ser]C(2a)WQC(2a)[Y(2-aminoethoxy)][2-Nal][2-Me-Leu]E(1c)[Dab]-[NH2], reference compound] ([X1][NMeS]CWQC[AEF][2Nal][αMeL]E[Dab]-NH2; linker 3-6 via CH2COCH2; lactam N-10) |  |  |  |  | 3.5 |  |  |  |  |  | 102 | 
